Laboratory results from ChEMBL document CHEMBL2346549, “Vavilosides A1/A2-B1/B2, new furostane glycosides from the bulbs of Allium vavilovii with cytotoxic activity” (Bioorg Med Chem, 2013).

Experiments:
[1] = tested on: J774; assay: Cytotoxicity against mouse J774 cells assessed as growth inhibition after 72 hrs by MTT assay; assay type: functional, cell-based; conditions: J774, 72 h
[2] = tested on: WEHI-164; assay: Cytotoxicity against mouse WEHI164 cells assessed as growth inhibition after 72 hrs by MTT assay; assay type: functional, cell-based; conditions: WEHI-164, 72 h

| Compound | IC50 [1] [µg/mL] | IC50 [2] [µg/mL] |
| --- | --- | --- |
| C[C@H](CCC1(O)O[C@H]2C[C@H]3[C@@H]4CC=C5C[C@@H](O)C[C@@H](O[C@@H]6O[C@H](CO)[C@H](O)[C@H](O)[C@H]6O[C@@H]6O[C@@H](C)[C@H](O)[C@@H](O)[C@H]6O)[C@]5(C)[C@H]4CC[C@]3(C)[C@H]2[C@@H]1C)CO[C@@H]1O[C@@H](C)[C@H](O)[C@@H](O)[C@H]1O (mixture of isomers) | 5.1 | 4.7 |
| C[C@H](CCC1(O)O[C@H]2C[C@H]3[C@@H]4CC=C5C[C@@H](O)C[C@@H](O[C@@H]6OC[C@@H](O)[C@H](O)[C@H]6O[C@@H]6O[C@@H](C)[C@H](O)[C@@H](O)[C@H]6O)[C@]5(C)[C@H]4CC[C@]3(C)[C@H]2[C@@H]1C)CO[C@@H]1O[C@@H](C)[C@H](O)[C@@H](O)[C@H]1O (mixture of isomers) | 3.5 | 3.1 |
| C[C@H](CCC1(O)O[C@H]2C[C@H]3[C@@H]4CC=C5C[C@@H](O)C[C@@H](O[C@@H]6O[C@H](CO)[C@H](O)[C@H](O)[C@H]6O)[C@]5(C)[C@H]4CC[C@]3(C)[C@H]2[C@@H]1C)CO[C@@H]1O[C@H](CO)[C@@H](O)[C@H](O)[C@H]1O[C@@H]1O[C@@H](C)[C@H](O)[C@@H](O)[C@H]1O (mixture of isomers) [ASCALONICOSIDE A1/A2] | 4 | 3.7 |
